From ChEMBL document CHEMBL1131873, “Induction of erythroid differentiation of human K562 cells by 3-O-acyl-1,2-O-isopropylidene-D-glucofuranose derivatives” (Bioorg Med Chem Lett, 1999)

Experiments:
K562 [1] = assay: Maximum level of percentage of benzidine-positive (hemoglobin-containing) K562 cells reached with in 9 days at 4 mM concentration; assay type: functional, Homo sapiens
K562 [2] = assay: In vitro inhibition of cell growth against human myeloid leukemia K562(S) cells; assay type: functional, cell-based
K562 [3] = assay: Maximum level of percentage of benzidine-positive (hemoglobin-containing) K562 cells reached with in 9 days at 3 mM concentration; assay type: functional, Homo sapiens
K562 [4] = assay: Evaluated for erythroid induction of benzidine-positive K562 cells at concentration 2 mM after 9 day induction period; assay type: functional, Homo sapiens
K562 [5] = assay: Inhibition of cell growth against human myeloid leukemia K562(S) cells; assay type: functional, cell-based
K562 [6] = assay: Compound was evaluated for erythroid induction of benzidine-positive K562 cells at concentration 1 mM after 9 day induction period; assay type: functional, Homo sapiens
K562 [7] = assay: Compound was evaluated for erythroid induction of benzidine-positive K562 cells at concentration 3 mM after 9 day induction period; assay type: functional, Homo sapiens
K562 [8] = assay: Compound was evaluated for erythroid induction of benzidine-positive K562 cells at concentration 4 mM after 9 day induction period; assay type: functional, Homo sapiens
K562 [9] = assay: Effect of compound on erythroid differentiation of K562 cells was determined after a period of 7 days at concentration 4 mM; assay type: functional, Homo sapiens
K562 [10] = assay: Effect of compound on erythroid differentiation of K562 cells was determined after a period of 5 days at concentration 4 mM; assay type: functional, Homo sapiens
K562 [11] = assay: Effect of compound on erythroid differentiation of K562 cells was determined after a period of 9 days at concentration 4 mM; assay type: functional, Homo sapiens
K562 [12] = assay: Effect of compound on erythroid differentiation of K562 cells was determined after a period of 3 days at concentration 4 mM; assay type: functional, Homo sapiens
K562 [13] = assay: Evaluated for erythroid induction of benzidine-positive K562 cells at concentration 3 mM; assay type: functional, Homo sapiens
K562 [14] = assay: Compound was evaluated for erythroid induction of benzidine-positive K562 cells at concentration 5 mM after 9 day induction period; assay type: functional, Homo sapiens
K562 [15] = assay: Compound was evaluated for erythroid induction of benzidine-positive K562 cells at concentration 4 mM; assay type: functional, Homo sapiens
K562 [16] = assay: Compound (2 mM) was evaluated for maximum level of percentage of benzidine-positive (hemoglobin-containing) K562 cells in the presence of ara-C (25 nM); assay type: functional, Homo sapiens
K562 [17] = assay: Compound (2 mM) was evaluated for maximum level of percentage of benzidine-positive (hemoglobin-containing) K562 cells in the presence of mithramycin (5 nM); assay type: functional, Homo sapiens
K562 [18] = assay: Compound (2 mM) was evaluated for maximum level of percentage of benzidine-positive (hemoglobin-containing) K562 cells in the presence of retinoic acid (5 uM); assay type: functional, Homo sapiens
K562 [19] = assay: Compound was evaluated for erythroid induction of benzidine-positive K562 cells at concentration 5 mM; assay type: functional, Homo sapiens
K562 [20] = assay: Compound (2 mM) was evaluated for maximum level of percentage of benzidine-positive (hemoglobin-containing) K562 cells in the presence of retinoic acid (5 µM)
K562 [21] = assay: Effect of compound on erythroid differentiation of K562 cells was determined after a period of 5 days at concentration 500 nM; assay type: functional, Homo sapiens
K562 [22] = assay: Effect of compound on erythroid differentiation of K562 cells was determined after a period of 7 days at concentration 500 nM; assay type: functional, Homo sapiens
K562 [23] = assay: Effect of compound on erythroid differentiation of K562 cells was determined after a period of 9 days at concentration 500 nM; assay type: functional, Homo sapiens
K562 [24] = assay: Effect of compound on erythroid differentiation of K562 cells was determined after a period of 3 days at concentration 500 nM; assay type: functional, Homo sapiens
K562 [25] = assay: Effect of compound on erythroid differentiation of K562 cells was determined after a period of 9 days at concentration 20 nM; assay type: functional, Homo sapiens
K562 [26] = assay: Effect of compound on erythroid differentiation of K562 cells was determined after a period of 3 days at concentration 20 nM; assay type: functional, Homo sapiens
K562 [27] = assay: The compound was evaluated for inhibition of cell growth against human myeloid leukemia K562(S) cells; assay type: functional, cell-based
K562 [28] = assay: Effect of compound on erythroid differentiation of K562 cells was determined after a period of 7 days at concentration 20 nM; assay type: functional, Homo sapiens
K562 [29] = assay: Effect of compound on erythroid differentiation of K562 cells was determined after a period of 5 days at concentration 20 nM; assay type: functional, Homo sapiens

CC1(C)OCC(C2OC3OC(C)(C)OC3C2O)O1 (stereo not drawn)
Erythroid induction (K562 [1]): 18%
IC50 (K562 [2]): 2800 µM
Erythroid induction (K562 [3]): 26%

CCCC(=O)OC1C(C(O)CO)OC2OC(C)(C)OC21 (stereo not drawn)
Erythroid induction (K562 [4]): 25.4%
IC50 (K562 [5]): 800 µM

CCCCCC(=O)OC1C(C(O)CO)OC2OC(C)(C)OC21 (stereo not drawn)
Erythroid induction (K562 [6]): 10.3%
Erythroid induction (K562 [4]): 21%
IC50 (K562 [5]): 1200 µM

CCCCC(=O)OC1C(C(O)CO)OC2OC(C)(C)OC21 (stereo not drawn)
Erythroid induction (K562 [7]): 28%
Erythroid induction (K562 [4]): 24%
IC50 (K562 [5]): 2000 µM
Erythroid induction (K562 [8]): 25%

CC(C)C(=O)O
Erythroid induction (K562 [9]): 12%
Erythroid induction (K562 [10]): 14%
Erythroid induction (K562 [11]): 8%
Erythroid induction (K562 [12]): 12%
Erythroid induction (K562 [13]): 14%
IC50 (K562 [5]): 4800 µM

CCC(=O)OC1C(C(O)CO)OC2OC(C)(C)OC21 (stereo not drawn)
Erythroid induction (K562 [7]): 19.6%
Erythroid induction (K562 [4]): 21%
IC50 (K562 [5]): 2400 µM
Erythroid induction (K562 [8]): 25%

CC(CC(=O)OC1C(C(O)CO)OC2OC(C)(C)OC21)c1ccccc1 (stereo not drawn)
Erythroid induction (K562 [6]): 15%
IC50 (K562 [5]): 500 µM

CC(C)(C)CC(=O)OC1C(C(O)CO)OC2OC(C)(C)OC21 (stereo not drawn)
Erythroid induction (K562 [4]): 20%
IC50 (K562 [5]): 1200 µM

CC(C)CC(=O)OC1C(C(O)CO)OC2OC(C)(C)OC21 (stereo not drawn)
Erythroid induction (K562 [4]): 12%
IC50 (K562 [5]): 1000 µM

CC1(C)OC2OC(C(O)CO)C(OC(=O)CC(c3ccccc3)c3ccccc3)C2O1 (stereo not drawn)
Erythroid induction (K562 [6]): 14%
IC50 (K562 [5]): 500 µM

CC1(C)OC2OC(C(O)CO)C(OC(=O)C3CCCC3)C2O1 (stereo not drawn)
Erythroid induction (K562 [14]): 8%
Erythroid induction (K562 [7]): 7%
IC50 (K562 [5]): 2500 µM
Erythroid induction (K562 [8]): 16.8%

CC1(C)OC2OC(C(O)CO)C(OC(=O)C(C)(C)C)C2O1 (stereo not drawn)
Erythroid induction (K562 [9]): 50.7%
Erythroid induction (K562 [10]): 25%
Erythroid induction (K562 [11]): 59%
Erythroid induction (K562 [12]): 22%
Erythroid induction (K562 [15]): 50.2%
Erythroid induction (K562 [13]): 51.7%
IC50 (K562 [5]): 1500 µM
Erythroid induction (K562 [16]): 90%
Erythroid induction (K562 [17]): 34%
Erythroid induction (K562 [18]): 67%

CC(C)C(=O)OC1C(C(O)CO)OC2OC(C)(C)OC21 (stereo not drawn)
Erythroid induction (K562 [9]): 56.8%
Erythroid induction (K562 [10]): 35%
Erythroid induction (K562 [11]): 50%
Erythroid induction (K562 [12]): 20%
Erythroid induction (K562 [15]): 54.2%
Erythroid induction (K562 [13]): 43%
IC50 (K562 [5]): 2500 µM
Erythroid induction (K562 [19]): 59%
Erythroid induction (K562 [20]): 55.8%
Erythroid induction (K562 [16]): 78%

CC(=O)OC1C(C(O)CO)OC2OC(C)(C)OC21 (stereo not drawn)
Erythroid induction (K562 [1]): 27%
IC50 (K562 [5]): 3800 µM

CCCC(=O)O [BUTYRIC ACID]
Erythroid induction (K562 [13]): 35%
IC50 (K562 [5]): 2400 µM

Nc1ccn([C@@H]2O[C@H](CO)[C@@H](O)[C@@H]2O)c(=O)n1 [CYTARABINE]
Erythroid induction (K562 [21]): 61.5%
Erythroid induction (K562 [22]): 84.5%
Erythroid induction (K562 [13]): 95%
IC50 (K562 [5]): 0.5 µM
Erythroid induction (K562 [23]): 93.2%
Erythroid induction (K562 [24]): 45%

CC(C)(C)C(=O)O [PIVALATE]
Erythroid induction (K562 [9]): 11%
Erythroid induction (K562 [10]): 9%
Erythroid induction (K562 [11]): 6%
Erythroid induction (K562 [12]): 4%
Erythroid induction (K562 [13]): 12%
IC50 (K562 [5]): 4500 µM

CO[C@H](C(=O)[C@@H](O)[C@@H](C)O)[C@@H]1Cc2cc3cc(O[C@H]4C[C@@H](O[C@@H]5C[C@@H](O)[C@H](O)[C@@H](C)O5)[C@H](O)[C@@H](C)O4)c(C)c(O)c3c(O)c2C(=O)[C@H]1O[C@H]1C[C@@H](O[C@@H]2C[C@@H](O)[C@@H](O[C@@H]3C[C@](C)(O)[C@H](O)[C@@H](C)O3)[C@@H](C)O2)[C@H](O)[C@@H](C)O1 [PLICAMYCIN]
Erythroid induction (K562 [25]): 80%
Erythroid induction (K562 [26]): 15%
IC50 (K562 [27]): 0.01 µM
Erythroid induction (K562 [28]): 75%
Erythroid induction (K562 [13]): 81%
Erythroid induction (K562 [29]): 55%

CCC(=O)O [PROPIONIC ACID]
IC50 (K562 [5]): 4000 µM
Erythroid induction (K562 [8]): 10%
